Experimental data published in ChEMBL document CHEMBL4507319 (2021).

Key:
[1] = biological target: Mitogen-activated protein kinase kinase kinase 6 (Homo sapiens) (UniProt O95382); conditions: Compound concentration 1000.0 nM
[2] = biological target: T1, Serine/threonine-protein kinase 17A (Homo sapiens) (UniProt Q9UEE5); conditions: Compound concentration 1000.0 nM
T1 sequence (whole entry): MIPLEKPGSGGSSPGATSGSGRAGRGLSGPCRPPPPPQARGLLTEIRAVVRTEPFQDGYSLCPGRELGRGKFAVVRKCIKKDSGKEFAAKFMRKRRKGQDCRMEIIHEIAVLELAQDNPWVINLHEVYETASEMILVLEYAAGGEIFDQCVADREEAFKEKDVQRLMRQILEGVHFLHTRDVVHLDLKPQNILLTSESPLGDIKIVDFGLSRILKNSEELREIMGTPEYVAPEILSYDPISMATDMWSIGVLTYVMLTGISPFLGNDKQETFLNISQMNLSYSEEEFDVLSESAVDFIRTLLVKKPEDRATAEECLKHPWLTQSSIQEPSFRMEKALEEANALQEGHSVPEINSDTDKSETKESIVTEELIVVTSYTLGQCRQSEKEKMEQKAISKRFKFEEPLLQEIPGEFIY

[3] = biological target: Serine/threonine-protein kinase/endoribonuclease IRE1 (Homo sapiens) (UniProt O75460); conditions: Compound concentration 1000.0 nM
[4] = biological target: T2, Tyrosine-protein kinase JAK3 (Homo sapiens) (UniProt P52333); conditions: Compound concentration 1000.0 nM
T2 sequence (whole entry): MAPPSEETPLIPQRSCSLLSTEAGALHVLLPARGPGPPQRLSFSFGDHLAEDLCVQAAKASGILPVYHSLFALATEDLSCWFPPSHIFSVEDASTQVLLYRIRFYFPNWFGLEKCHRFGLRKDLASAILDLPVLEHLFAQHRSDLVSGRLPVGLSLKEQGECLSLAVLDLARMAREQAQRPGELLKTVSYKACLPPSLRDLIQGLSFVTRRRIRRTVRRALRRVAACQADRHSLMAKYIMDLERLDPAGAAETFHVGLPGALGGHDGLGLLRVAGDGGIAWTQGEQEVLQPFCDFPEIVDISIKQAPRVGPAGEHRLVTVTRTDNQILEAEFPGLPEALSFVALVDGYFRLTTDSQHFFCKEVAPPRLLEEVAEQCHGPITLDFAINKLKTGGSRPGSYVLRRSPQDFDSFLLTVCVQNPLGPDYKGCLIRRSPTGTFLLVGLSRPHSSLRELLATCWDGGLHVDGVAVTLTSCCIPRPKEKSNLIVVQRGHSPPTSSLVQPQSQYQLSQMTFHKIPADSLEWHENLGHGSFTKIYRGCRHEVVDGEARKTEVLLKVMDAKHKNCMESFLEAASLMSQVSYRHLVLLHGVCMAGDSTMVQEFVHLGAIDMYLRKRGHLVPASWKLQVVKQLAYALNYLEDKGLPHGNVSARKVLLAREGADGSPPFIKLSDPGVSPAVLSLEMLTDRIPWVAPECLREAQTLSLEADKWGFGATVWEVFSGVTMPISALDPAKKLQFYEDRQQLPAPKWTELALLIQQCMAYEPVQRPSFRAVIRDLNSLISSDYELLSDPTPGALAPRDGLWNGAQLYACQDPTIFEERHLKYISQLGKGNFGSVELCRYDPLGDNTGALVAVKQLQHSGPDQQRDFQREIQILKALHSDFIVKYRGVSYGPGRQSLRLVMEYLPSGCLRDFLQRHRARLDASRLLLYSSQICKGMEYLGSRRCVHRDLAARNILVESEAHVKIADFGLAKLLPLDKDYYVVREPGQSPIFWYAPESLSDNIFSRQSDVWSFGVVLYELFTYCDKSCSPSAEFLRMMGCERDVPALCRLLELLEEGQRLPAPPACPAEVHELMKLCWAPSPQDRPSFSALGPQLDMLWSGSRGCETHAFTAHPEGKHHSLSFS

[5] = biological target: LIM domain kinase 1 (Homo sapiens) (UniProt P53667); conditions: Compound concentration 1000.0 nM
[6] = biological target: T3, Serine/threonine-protein kinase 4 (Homo sapiens) (UniProt Q13043); conditions: Compound concentration 1000.0 nM
T3 sequence (whole entry): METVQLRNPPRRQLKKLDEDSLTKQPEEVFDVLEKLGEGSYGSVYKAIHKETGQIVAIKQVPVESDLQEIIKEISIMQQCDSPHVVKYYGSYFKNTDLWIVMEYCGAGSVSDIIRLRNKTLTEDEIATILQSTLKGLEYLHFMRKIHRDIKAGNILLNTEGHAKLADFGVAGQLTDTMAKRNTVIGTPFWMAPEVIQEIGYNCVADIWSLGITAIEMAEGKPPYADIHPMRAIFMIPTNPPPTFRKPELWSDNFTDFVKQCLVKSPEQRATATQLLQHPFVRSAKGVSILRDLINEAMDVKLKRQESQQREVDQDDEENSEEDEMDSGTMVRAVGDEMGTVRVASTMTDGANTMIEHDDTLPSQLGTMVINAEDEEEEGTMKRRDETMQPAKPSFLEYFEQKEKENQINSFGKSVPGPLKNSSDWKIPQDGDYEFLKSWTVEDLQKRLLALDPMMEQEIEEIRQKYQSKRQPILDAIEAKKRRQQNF

[7] = biological target: Serine/threonine-protein kinase PAK 5 (Homo sapiens) (UniProt Q9P286); conditions: Compound concentration 1000.0 nM
[8] = biological target: T4, cAMP-dependent protein kinase catalytic subunit PRKX (Homo sapiens) (UniProt P51817); conditions: Compound concentration 1000.0 nM
T4 sequence (whole entry): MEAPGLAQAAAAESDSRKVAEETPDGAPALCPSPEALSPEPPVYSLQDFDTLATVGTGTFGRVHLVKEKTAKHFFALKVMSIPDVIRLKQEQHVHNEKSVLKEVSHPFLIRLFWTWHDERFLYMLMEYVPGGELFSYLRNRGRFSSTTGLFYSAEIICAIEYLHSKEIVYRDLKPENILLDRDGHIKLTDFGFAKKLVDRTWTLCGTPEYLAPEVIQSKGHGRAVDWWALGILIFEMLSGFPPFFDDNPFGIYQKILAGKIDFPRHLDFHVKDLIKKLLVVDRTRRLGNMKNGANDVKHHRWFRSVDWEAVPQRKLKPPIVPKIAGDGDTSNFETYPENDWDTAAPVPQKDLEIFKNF

[9] = biological target: Uncharacterized serine/threonine-protein kinase SBK3 (Homo sapiens) (UniProt P0C264); conditions: Compound concentration 1000.0 nM
[10] = biological target: Alpha-2B adrenergic receptor (Homo sapiens) (UniProt P18089); conditions: Compound concentration 10.0 uM
Sequence of Alpha-2B adrenergic receptor (Homo sapiens) (P18089 whole entry): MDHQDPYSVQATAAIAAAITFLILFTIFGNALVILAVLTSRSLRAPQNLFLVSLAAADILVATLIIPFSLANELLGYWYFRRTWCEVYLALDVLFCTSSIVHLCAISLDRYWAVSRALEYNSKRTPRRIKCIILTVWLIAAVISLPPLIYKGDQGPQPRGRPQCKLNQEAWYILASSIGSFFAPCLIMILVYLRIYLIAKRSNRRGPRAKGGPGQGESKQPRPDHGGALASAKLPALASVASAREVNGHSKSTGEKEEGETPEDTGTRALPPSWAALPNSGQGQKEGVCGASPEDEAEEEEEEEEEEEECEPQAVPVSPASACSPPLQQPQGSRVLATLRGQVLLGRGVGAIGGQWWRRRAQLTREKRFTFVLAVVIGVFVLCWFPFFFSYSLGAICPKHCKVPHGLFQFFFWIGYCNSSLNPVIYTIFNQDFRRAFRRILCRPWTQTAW

Sequence of Serine/threonine-protein kinase/endoribonuclease IRE1 (Homo sapiens) (O75460 19-977 limits assumed): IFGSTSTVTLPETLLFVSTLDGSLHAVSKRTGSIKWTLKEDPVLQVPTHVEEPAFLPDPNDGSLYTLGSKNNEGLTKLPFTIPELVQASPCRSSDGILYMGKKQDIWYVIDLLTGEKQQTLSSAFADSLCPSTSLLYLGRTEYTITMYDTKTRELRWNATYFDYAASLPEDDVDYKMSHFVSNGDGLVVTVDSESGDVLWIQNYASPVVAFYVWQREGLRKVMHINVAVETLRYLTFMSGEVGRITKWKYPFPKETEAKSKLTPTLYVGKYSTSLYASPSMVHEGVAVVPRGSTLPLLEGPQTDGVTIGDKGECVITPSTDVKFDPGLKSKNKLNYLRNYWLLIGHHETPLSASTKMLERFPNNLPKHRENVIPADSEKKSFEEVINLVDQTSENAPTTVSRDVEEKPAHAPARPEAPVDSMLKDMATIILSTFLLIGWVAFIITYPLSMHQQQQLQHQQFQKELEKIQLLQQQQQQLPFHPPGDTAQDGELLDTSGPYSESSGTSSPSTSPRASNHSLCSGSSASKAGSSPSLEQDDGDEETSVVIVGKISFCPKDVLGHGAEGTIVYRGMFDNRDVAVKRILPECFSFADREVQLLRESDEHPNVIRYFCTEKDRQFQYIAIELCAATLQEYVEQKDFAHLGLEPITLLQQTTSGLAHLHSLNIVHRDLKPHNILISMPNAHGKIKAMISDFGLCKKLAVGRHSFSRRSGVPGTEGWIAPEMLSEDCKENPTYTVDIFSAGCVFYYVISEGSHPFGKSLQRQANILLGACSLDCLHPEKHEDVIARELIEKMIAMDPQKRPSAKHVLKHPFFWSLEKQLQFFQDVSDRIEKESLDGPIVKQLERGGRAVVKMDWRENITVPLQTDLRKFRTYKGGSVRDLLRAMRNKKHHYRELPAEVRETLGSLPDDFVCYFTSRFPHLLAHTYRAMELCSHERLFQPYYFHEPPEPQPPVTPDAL
Sequence of Mitogen-activated protein kinase kinase kinase 6 (Homo sapiens) (O95382 whole entry): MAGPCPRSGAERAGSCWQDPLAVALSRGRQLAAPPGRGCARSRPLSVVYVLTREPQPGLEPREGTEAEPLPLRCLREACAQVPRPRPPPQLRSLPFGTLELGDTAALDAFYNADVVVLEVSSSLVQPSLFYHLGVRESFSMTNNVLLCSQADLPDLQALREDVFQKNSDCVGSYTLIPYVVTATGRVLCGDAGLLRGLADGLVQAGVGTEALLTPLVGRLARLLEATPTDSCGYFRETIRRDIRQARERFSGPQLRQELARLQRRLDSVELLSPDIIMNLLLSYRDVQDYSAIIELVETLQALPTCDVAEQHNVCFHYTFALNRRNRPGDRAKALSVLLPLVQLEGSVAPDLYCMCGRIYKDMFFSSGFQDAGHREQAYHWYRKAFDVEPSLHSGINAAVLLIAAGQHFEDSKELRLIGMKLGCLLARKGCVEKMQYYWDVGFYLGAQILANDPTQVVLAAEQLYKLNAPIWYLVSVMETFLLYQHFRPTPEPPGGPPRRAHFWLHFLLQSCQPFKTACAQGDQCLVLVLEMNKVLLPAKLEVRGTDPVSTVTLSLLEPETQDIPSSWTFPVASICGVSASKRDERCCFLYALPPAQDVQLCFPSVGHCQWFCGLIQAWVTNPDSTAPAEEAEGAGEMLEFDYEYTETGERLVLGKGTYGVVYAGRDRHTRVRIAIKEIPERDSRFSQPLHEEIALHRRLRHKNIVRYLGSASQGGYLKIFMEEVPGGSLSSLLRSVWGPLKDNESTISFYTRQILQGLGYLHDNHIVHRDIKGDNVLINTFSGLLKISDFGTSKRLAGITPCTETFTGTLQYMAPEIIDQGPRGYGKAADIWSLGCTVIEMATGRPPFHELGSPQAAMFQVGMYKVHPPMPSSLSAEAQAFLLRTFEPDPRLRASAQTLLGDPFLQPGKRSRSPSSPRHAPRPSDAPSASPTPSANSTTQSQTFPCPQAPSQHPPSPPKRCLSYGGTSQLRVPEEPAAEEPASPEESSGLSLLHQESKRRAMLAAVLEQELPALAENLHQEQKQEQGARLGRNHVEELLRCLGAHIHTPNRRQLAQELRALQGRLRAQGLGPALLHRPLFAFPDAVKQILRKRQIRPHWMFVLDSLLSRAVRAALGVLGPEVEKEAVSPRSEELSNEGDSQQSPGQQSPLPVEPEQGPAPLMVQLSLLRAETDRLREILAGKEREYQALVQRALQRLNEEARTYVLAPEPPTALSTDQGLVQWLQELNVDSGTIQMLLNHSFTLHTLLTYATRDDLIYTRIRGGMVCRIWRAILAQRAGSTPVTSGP
Sequence of LIM domain kinase 1 (Homo sapiens) (P53667 whole entry, looked up, the tested form may be a part): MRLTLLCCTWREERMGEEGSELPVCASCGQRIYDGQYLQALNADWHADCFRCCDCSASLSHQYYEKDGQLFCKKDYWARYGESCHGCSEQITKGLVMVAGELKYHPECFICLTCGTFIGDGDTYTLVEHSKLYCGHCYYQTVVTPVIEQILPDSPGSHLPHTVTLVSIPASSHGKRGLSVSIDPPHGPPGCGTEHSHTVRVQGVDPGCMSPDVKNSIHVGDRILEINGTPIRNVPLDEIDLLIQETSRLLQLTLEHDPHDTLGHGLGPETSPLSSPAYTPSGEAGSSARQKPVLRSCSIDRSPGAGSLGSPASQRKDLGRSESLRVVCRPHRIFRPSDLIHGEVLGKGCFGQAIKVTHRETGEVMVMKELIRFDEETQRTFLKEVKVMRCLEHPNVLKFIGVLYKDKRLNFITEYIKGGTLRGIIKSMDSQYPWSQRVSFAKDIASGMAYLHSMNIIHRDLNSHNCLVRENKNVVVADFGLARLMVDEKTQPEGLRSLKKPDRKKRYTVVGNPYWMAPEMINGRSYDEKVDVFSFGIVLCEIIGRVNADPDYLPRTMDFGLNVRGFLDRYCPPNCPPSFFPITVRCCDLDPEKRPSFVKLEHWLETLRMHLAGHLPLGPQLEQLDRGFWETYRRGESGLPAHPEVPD
Sequence of Uncharacterized serine/threonine-protein kinase SBK3 (Homo sapiens) (P0C264 whole entry): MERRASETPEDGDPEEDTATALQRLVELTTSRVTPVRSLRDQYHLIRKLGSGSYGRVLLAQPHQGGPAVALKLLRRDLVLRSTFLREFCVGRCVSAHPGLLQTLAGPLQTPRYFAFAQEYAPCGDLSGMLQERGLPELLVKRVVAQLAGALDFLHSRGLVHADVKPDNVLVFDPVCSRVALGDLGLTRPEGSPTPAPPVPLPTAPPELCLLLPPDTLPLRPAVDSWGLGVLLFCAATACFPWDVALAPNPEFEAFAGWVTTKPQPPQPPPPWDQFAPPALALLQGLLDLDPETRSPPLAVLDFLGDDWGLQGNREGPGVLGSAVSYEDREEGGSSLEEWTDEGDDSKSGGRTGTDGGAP
Sequence of Serine/threonine-protein kinase PAK 5 (Homo sapiens) (Q9P286 whole entry, looked up): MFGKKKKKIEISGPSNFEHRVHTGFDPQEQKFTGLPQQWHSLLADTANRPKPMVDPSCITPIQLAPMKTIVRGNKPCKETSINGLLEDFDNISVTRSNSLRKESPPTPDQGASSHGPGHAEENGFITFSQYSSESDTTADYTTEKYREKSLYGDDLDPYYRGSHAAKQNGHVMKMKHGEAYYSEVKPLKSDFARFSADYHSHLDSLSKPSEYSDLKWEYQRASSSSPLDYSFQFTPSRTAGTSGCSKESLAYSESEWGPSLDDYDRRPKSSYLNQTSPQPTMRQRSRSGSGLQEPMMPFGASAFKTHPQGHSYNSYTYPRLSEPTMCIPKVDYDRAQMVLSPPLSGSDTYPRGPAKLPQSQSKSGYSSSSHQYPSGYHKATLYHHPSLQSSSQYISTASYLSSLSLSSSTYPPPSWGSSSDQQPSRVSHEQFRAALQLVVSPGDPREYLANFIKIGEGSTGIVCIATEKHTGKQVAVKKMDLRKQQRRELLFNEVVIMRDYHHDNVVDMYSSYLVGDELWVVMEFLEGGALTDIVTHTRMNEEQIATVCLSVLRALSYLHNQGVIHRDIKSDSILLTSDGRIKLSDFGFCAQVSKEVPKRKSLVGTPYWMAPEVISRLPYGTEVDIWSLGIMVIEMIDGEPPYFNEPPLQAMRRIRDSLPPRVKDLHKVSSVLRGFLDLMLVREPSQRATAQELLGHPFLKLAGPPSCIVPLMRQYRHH

CCc1ccccc1C(=O)Nc1n[nH]c2c(C)c(F)c(C3C(C#N)=C(C)N(C)C(C)=C3C#N)cc12 [BAY-3827]
inactive: residual activity [1] 100% | residual activity [2] 89% | residual activity [3] 70% | residual activity [4] 79% | residual activity [5] 100% | residual activity [6] 98% | residual activity [7] 100% | residual activity [8] 88% | residual activity [9] 73% | inhibition [10] 10.6%

CC1=C(C#N)C(c2ccc3c(c2)c(NC(=O)c2ccccc2C)nn3C)C(C#N)=C(C)N1 [BAY-974]
inactive: residual activity [1] 71% | residual activity [2] 82% | residual activity [3] 84% | residual activity [4] 83% | residual activity [5] 94% | residual activity [6] 80% | residual activity [7] 100% | residual activity [8] 76% | residual activity [9] 100% | inhibition [10] 20.7%
